# Source: ChEMBL document CHEMBL3124792, “Discovery and preclinical characterization of the cyclopropylindolobenzazepine BMS-791325, a potent allosteric inhibitor of the hepatitis C virus NS5B polymerase” (J Med Chem, 2014)
# Assays:
# [1] = Inhibition of HCV Con1 genotype 1b recombinant wild-type NS5B polymerase-mediated incorporation of radiolabeled nucleotides by scintillation proximity assay; parameters: species or system Hepatitis C virus (isolate Con1)
# [2] = tested on: Hepatitis C virus; assay: Antiviral activity against Hepatitis C virus Con1 genotype 1b infected in human HuH7 cells after 3 days by FRET assay; type: functional, organism-based, Hepacivirus hominis; settings: isolate Con1, Huh-7, 72 h
# [3] = Cytotoxicity against human HuH7 cells by Alamar blue assay; type: cell-based; settings: Huh-7 cells
# [4] = molecular target: RNA-directed RNA polymerase (Hepacivirus hominis, UniProt O39930, P495A); assay: Inhibition of HCV Con1 genotype 1b NS5B RNA dependent RNA polymerase P495A mutant-mediated incorporation of radiolabeled nucleotides by scintillation proximity assay; parameters: species or system Hepatitis C virus (isolate Con1)
# RNA-directed RNA polymerase, sequence (O39930 entry or part of it P495A): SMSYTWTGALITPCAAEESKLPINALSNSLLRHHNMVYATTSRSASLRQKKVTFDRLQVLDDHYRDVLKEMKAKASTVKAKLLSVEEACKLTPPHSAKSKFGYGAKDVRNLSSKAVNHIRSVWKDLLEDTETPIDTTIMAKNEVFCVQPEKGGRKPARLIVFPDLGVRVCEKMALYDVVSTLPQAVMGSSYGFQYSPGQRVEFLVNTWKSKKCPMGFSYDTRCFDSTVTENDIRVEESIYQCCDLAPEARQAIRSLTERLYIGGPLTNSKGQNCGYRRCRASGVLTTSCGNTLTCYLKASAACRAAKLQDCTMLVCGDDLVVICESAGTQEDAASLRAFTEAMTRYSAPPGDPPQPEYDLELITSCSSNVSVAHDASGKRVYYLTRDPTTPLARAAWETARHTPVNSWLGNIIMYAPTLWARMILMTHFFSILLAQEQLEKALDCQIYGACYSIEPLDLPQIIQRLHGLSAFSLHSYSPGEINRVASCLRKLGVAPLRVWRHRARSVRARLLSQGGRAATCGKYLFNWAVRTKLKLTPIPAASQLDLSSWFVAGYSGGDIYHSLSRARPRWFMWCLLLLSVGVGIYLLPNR
# [5] = tested on: Hepatitis C virus; assay: Antiviral activity against Hepatitis C virus H77c genotype 1a infected in human HuH7 cells after 3 days by FRET assay; type: functional, organism-based, Hepacivirus hominis; settings: genotype 1a H77, Huh-7, 72 h
# [6] = tested on: Hepatitis C virus; assay: Antiviral activity against Hepatitis C virus Con1 genotype 1b infected in human HuH7 cells after 3 days by FRET assay in presence of 40% human serum; type: functional, organism-based, Hepacivirus hominis; settings: isolate Con1, Huh-7, 72 h
# [7] = tested on: Liver microsome; settings: human, microsomes
# [8] = molecular target: T1, Cytochrome P450 1A2 (Homo sapiens, UniProt P05177); assay: Inhibition of CYP1A2 in human liver microsomes after 30 mins in presence of NADPH; type: ADME
# T1 sequence (P05177 whole entry): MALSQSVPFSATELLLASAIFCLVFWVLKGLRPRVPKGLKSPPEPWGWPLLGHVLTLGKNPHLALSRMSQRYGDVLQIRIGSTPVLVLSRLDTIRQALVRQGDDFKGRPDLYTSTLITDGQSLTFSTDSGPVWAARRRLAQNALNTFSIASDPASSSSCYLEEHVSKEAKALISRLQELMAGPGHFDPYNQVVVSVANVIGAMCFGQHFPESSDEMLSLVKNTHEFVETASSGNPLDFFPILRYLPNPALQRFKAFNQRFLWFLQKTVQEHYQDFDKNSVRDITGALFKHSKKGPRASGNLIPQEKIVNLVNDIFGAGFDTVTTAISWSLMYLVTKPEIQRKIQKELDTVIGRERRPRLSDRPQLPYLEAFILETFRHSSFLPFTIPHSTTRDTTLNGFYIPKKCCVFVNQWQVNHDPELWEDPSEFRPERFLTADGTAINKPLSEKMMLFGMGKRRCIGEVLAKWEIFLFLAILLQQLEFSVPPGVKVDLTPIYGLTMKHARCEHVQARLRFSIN
# [9] = molecular target: Cytochrome P450 2C19 (Homo sapiens, UniProt P33261); assay: Inhibition of CYP2C19 in human liver microsomes after 30 mins in presence of NADPH; type: ADME
# Cytochrome P450 2C19, sequence (P33261 whole entry): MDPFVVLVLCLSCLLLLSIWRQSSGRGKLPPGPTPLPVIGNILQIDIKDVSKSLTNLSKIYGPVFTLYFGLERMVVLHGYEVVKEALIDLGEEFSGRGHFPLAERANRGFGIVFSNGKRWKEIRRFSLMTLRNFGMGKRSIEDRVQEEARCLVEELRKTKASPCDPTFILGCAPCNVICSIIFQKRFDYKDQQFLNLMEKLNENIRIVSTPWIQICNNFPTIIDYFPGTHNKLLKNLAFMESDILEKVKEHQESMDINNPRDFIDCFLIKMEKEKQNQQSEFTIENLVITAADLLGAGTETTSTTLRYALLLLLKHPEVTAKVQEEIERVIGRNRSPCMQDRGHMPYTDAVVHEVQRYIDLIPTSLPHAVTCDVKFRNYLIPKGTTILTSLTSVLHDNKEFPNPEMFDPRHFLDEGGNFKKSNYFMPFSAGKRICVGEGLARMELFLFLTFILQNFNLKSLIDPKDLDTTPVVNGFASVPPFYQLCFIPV
# [10] = molecular target: Voltage-gated inwardly rectifying potassium channel KCNH2 (Homo sapiens, UniProt Q12809); assay: Inhibition of human ERG by fluorescence-based thallium flux assay
# Voltage-gated inwardly rectifying potassium channel KCNH2, sequence (Q12809 whole entry): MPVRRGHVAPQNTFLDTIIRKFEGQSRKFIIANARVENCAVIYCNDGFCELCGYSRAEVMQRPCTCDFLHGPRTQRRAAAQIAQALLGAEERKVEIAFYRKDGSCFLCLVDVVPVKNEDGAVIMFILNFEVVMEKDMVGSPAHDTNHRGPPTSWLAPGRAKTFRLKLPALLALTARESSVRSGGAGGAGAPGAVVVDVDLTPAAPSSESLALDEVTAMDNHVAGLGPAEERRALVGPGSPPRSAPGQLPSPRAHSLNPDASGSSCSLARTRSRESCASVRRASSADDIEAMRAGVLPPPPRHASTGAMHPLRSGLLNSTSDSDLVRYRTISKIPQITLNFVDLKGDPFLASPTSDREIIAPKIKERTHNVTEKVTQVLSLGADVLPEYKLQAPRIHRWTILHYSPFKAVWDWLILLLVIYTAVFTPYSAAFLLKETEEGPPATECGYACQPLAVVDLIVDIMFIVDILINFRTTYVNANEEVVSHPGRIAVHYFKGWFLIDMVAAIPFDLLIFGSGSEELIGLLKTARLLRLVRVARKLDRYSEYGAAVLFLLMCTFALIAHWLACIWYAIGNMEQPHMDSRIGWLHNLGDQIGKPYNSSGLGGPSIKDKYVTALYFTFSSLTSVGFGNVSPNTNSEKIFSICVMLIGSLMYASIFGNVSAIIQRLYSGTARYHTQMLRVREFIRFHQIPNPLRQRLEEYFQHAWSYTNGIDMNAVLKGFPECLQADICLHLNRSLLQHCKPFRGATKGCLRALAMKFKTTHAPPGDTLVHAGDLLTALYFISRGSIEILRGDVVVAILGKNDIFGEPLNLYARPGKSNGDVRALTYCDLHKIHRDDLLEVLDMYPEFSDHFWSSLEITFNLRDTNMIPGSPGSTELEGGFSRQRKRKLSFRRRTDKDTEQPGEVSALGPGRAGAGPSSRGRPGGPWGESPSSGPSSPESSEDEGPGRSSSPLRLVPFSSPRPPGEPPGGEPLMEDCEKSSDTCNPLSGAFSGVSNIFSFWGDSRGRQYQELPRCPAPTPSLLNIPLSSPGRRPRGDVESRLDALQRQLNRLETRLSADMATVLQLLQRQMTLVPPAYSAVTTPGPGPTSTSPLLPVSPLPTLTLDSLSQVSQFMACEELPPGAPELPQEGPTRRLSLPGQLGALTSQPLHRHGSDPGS
# [11] = tested on: Liver microsome; settings: rat, microsomes
# [12] = tested on: HepG2; assay: Cytotoxicity against human HepG2 cells; type: cell-based
# [13] = molecular target: Cytochrome P450 3A4 (Homo sapiens, UniProt P08684); assay: Inhibition of CYP3A4 in human liver microsomes using benzyloxyresorufin as substrate after 30 mins in presence of NADPH; type: ADME
# Cytochrome P450 3A4, sequence (P08684 whole entry): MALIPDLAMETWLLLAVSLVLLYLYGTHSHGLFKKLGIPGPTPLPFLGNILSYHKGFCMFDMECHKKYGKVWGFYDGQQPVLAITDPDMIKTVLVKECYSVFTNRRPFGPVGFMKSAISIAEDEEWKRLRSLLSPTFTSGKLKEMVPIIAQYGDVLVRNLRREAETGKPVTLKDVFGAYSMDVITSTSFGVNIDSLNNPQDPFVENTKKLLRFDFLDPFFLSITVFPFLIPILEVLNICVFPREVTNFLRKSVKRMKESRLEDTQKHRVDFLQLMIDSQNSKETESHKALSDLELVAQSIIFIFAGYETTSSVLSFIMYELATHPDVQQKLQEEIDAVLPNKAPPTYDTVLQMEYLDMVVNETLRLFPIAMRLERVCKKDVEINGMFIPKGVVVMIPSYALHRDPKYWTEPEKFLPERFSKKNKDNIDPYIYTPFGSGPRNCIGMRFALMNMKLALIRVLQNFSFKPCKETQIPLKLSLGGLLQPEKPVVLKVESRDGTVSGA
# [14] = molecular target: Cytochrome P450 2C9 (Homo sapiens, UniProt P11712); assay: Inhibition of CYP2C9 in human liver microsomes after 30 mins in presence of NADPH; type: ADME
# Cytochrome P450 2C9, sequence (P11712 whole entry): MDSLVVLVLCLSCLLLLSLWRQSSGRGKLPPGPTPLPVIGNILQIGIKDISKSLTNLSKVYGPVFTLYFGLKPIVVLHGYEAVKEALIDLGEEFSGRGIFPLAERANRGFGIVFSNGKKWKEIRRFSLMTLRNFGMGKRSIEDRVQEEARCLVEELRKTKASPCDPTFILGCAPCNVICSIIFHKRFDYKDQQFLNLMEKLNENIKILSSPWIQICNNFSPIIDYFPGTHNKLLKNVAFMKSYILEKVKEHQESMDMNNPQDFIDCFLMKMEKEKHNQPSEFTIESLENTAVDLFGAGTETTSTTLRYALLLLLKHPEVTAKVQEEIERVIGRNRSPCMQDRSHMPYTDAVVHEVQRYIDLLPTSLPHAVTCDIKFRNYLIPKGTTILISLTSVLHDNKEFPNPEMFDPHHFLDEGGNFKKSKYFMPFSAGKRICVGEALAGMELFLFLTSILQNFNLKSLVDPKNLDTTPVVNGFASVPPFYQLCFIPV
# [15] = molecular target: Cytochrome P450 2D6 (Homo sapiens, UniProt P10635); assay: Inhibition of CYP2D6 in human liver microsomes after 30 mins in presence of NADPH; type: ADME
# Cytochrome P450 2D6, sequence (P10635 whole entry): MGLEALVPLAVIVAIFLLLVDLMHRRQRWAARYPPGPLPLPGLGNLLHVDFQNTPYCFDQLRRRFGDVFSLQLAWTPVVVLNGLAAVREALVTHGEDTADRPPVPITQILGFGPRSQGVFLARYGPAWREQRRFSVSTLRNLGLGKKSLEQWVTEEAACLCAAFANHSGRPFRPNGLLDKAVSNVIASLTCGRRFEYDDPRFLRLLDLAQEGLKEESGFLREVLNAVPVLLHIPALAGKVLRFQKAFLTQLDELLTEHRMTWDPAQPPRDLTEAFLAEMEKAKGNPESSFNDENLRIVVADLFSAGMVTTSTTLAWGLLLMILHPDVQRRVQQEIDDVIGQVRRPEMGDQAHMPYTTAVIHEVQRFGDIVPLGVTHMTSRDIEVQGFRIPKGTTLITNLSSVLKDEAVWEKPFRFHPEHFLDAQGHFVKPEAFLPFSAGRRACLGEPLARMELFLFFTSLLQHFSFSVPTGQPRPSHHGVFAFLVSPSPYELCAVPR
# [16] = Permeability of the compound at pH 7.4 by PAMPA; type: physicochemical; settings: read-out: permeability
# [17] = molecular target: T2, Nuclear receptor subfamily 1 group I member 2 (Homo sapiens, UniProt O75469); assay: Transactivation of human PXR expressed in human HepG2 cells by luciferase reporter gene assay; type: cell-based
# T2 sequence (O75469 whole entry): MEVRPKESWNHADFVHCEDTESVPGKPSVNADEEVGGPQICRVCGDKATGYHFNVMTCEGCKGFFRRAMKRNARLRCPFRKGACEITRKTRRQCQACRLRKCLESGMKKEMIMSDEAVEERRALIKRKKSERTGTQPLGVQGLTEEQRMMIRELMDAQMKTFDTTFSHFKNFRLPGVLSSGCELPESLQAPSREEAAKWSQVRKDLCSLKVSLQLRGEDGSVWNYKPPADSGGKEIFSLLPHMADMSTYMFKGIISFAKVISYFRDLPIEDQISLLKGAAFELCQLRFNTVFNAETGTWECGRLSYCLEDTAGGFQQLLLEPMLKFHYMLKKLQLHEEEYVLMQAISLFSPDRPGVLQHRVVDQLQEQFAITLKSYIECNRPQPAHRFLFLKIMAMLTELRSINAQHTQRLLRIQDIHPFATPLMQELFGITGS
# [18] = molecular target: T3, PXR (NR1I2) (Homo sapiens, UniProt O75469); assay: Transactivation of human PXR expressed in human HepG2 cells by luciferase reporter gene assay relative to control; type: cell-based; settings: HepG2 cells expressing human PXR, read-out: %max
# T3 sequence (O75469 whole entry): T2 sequence (O75469 whole entry)
# [19] = Solubility of the compound in amorphous form in phosphate buffer at pH 6.5; type: physicochemical
# [20] = Plasma concentration in rat at 5 mg/kg, iv after 4 hrs; type: ADME, organism-based; parameters: dose 5 mg/kg, route intravenous
# [21] = Drug uptake in rat liver at 10 mg/kg, po after 4 hrs; type: ADME, organism-based; parameters: dose 10 mg/kg, route oral; settings: read-out: Drug uptake
# [22] = Plasma clearance in rat at 5 mg/kg, iv; type: ADME, organism-based; parameters: dose 5 mg/kg, route intravenous
# [23] = AUC (0 to 4 hrs) in rat at 10 mg/kg, po; type: ADME, organism-based; parameters: time < 4 hr, dose 10 mg/kg, route oral; settings: plasma
# [24] = AUC (0 to 4 hrs) in rat at 5 mg/kg, iv; type: ADME, organism-based; parameters: time < 4 hr, dose 5 mg/kg, route intravenous; settings: plasma
# [25] = Drug uptake in rat liver at 5 mg/kg, iv after 4 hrs; type: ADME, organism-based; parameters: dose 5 mg/kg, route intravenous; settings: read-out: Drug uptake
# [26] = Plasma concentration in rat at 10 mg/kg, po after 4 hrs; type: ADME, organism-based; parameters: dose 10 mg/kg, route oral
structure (smiles),measurement,setting,value
CN(C)S(=O)(=O)NC(=O)c1ccc2c(C3CCCCC3)c3n(c2c1)C[C@@]1(C(=O)N2CCOCC2)C[C@H]1c1ccccc1-3,IC50,[1],27 nM
same,EC50,[2],31 nM
same,CC50,[3],> 10000 nM
same,EC50,[4],240 nM
same,EC50,[5],26 nM
same,EC50,[6],218 nM
O=C(O)c1ccc2c(C3CCCCC3)c3n(c2c1)CC(C(=O)N1CCOCC1)=Cc1ccccc1-3,IC50,[1],106 nM
same,EC50,[2],359 nM
same,CC50,[3],> 10000 nM
same,EC50,[4],3400 nM
same,EC50,[5],404 nM
CN(C)S(=O)(=O)NC(=O)c1ccc2c(C3CCCCC3)c3n(c2c1)CC(C(=O)N1CCOCC1)=Cc1ccccc1-3,IC50,[1],52 nM
same,EC50,[2],148 nM
same,CC50,[3],> 10000 nM
same,EC50,[4],1100 nM
same,EC50,[5],119 nM
COc1ccc2c(c1)C=C(C(=O)N1CCOCC1)Cn1c-2c(C2CCCCC2)c2ccc(C(=O)NS(=O)(=O)N(C)C)cc21,IC50,[1],49 nM
same,EC50,[2],62 nM
same,CC50,[3],> 10000 nM
same,EC50,[4],239 nM
same,EC50,[5],61 nM
O=C(O)c1ccc2c(C3CCCCC3)c3n(c2c1)C[C@]1(C(=O)N2CCOCC2)C[C@@H]1c1ccccc1-3,IC50,[1],93 nM
same,EC50,[2],336 nM
same,CC50,[3],> 10000 nM
same,EC50,[4],890 nM
same,EC50,[5],472 nM
O=C(O)c1ccc2c(C3CCCCC3)c3n(c2c1)C[C@@]1(C(=O)N2CCOCC2)C[C@H]1c1ccccc1-3,IC50,[1],22 nM
same,EC50,[2],51 nM
same,CC50,[3],> 10000 nM
same,EC50,[4],380 nM
same,EC50,[5],41 nM
same,EC50,[6],484 nM
CN(C)S(=O)(=O)NC(=O)c1ccc2c(C3CCCCC3)c3n(c2c1)C[C@]1(C(=O)N2CCOCC2)C[C@@H]1c1ccccc1-3,IC50,[1],165 nM
same,EC50,[2],143 nM
same,CC50,[3],> 10000 nM
same,EC50,[4],630 nM
same,EC50,[5],259 nM
COc1ccc2c(c1)C1CC1(C(=O)N1C3CNCC1C3)Cn1c-2c(C2CCCCC2)c2ccc(C(=O)NS(=O)(=O)N(C)C)cc21 (racemic),Stability,[7],97%
same,EC50,[8],> 40000 nM
same,EC50,[9],> 40000 nM
same,EC50,[10],32000 nM
same,EC50,[2],80 nM
same,CC50,[3],> 10000 nM
same,EC50,[5],23 nM
same,Stability,[11],100%
same,EC50,[12],> 50000 nM
same,EC50,[13],> 40000 nM
same,EC50,[14],> 40000 nM
same,EC50,[15],> 40000 nM
same,EC50,[6],94 nM
same,Papp,[16],6 ×10⁻⁶ cm/s
same,EC50,[17],> 50000 nM
COc1ccc2c(c1)C1CC1(C(=O)N1C3CC1CN(Cc1ccccc1)C3)Cn1c-2c(C2CCCCC2)c2ccc(C(=O)NS(=O)(=O)N(C)C)cc21 (racemic),Stability,[7],80%
same,EC50,[8],> 13000 nM
same,EC50,[9],31000 nM
same,EC50,[10],> 80000 nM
same,EC50,[2],162 nM
same,CC50,[3],> 10000 nM
same,EC50,[5],35 nM
same,Stability,[11],100%
same,EC50,[12],22000 nM
same,EC50,[13],13000 nM
same,EC50,[14],7000 nM
same,EC50,[15],> 40000 nM
same,Papp,[16],56 ×10⁻⁶ cm/s
same,Emax,[18],22%
same,EC50,[17],2000 nM
COc1ccc2c(c1)C1CC1(C(=O)N1CC3CCC(C1)N3C)Cn1c-2c(C2CCCCC2)c2ccc(C(=O)NS(=O)(=O)N(C)C)cc21 (racemic),Stability,[7],100%
same,EC50,[2],39 nM
same,CC50,[3],> 16000 nM
same,EC50,[5],16 nM
same,Stability,[11],100%
same,solubility,[19],41 µg/mL
same,EC50,[6],153 nM
same,Papp,[16],21 ×10⁻⁶ cm/s
same,Emax,[18],29%
same,EC50,[17],3000 nM
CN(C)S(=O)(=O)NC(=O)c1ccc2c(C3CCCCC3)c3n(c2c1)CC1(C(=O)N2CCOCC2)CC1c1ccccc1-3 (racemic),IC50,[1],94 nM
same,EC50,[2],82 nM
same,CC50,[3],> 10000 nM
same,EC50,[4],165 nM
same,EC50,[5],44 nM
same,EC50,[6],821 nM
COc1ccc2c(c1)C1CC1(C(=O)N1CCOCC1)Cn1c-2c(C2CCCCC2)c2ccc(C(=O)NS(=O)(=O)N(C)C)cc21 (racemic),IC50,[1],22 nM
same,EC50,[2],61 nM
same,CC50,[3],> 10000 nM
same,EC50,[4],385 nM
same,EC50,[5],54 nM
same,EC50,[6],300 nM
COc1ccc2c(c1)C1CC1(C(=O)N1C[C@@H](C)N(C)[C@@H](C)C1)Cn1c-2c(C2CCCCC2)c2ccc(C(=O)NS(=O)(=O)N(C)C)cc21 (mixture of isomers),Stability,[7],88%
same,concentration at 4 h,[20],67 nM
same,concentration at 4 h,[21],9700 nM
same,EC50,[2],17 nM
same,CC50,[3],8000 nM
same,EC50,[5],14 nM
same,Stability,[11],99%
same,clearance,[22],29 mL/min/kg
same,AUC(0-t) at 4 h,[23],0.516 µM·h
same,AUC(0-t) at 4 h,[24],4.29 µM·h
same,solubility,[19],34 µg/mL
same,EC50,[6],46 nM
same,concentration at 4 h,[25],1860 nM
same,concentration at 4 h,[26],158 nM
same,Papp,[16],48 ×10⁻⁶ cm/s
same,EC50,[17],> 50000 nM
COc1ccc2c(c1)C1CC1(C(=O)N1C[C@@H](C)N(C(C)=O)[C@@H](C)C1)Cn1c-2c(C2CCCCC2)c2ccc(C(=O)NS(=O)(=O)N(C)C)cc21 (mixture of isomers),Stability,[7],100%
same,concentration at 4 h,[20],9 nM
same,concentration at 4 h,[21],345 nM
same,EC50,[2],38 nM
same,CC50,[3],> 10000 nM
same,EC50,[5],24 nM
same,Stability,[11],93%
same,clearance,[22],37 mL/min/kg
same,AUC(0-t) at 4 h,[23],0.277 µM·h
same,AUC(0-t) at 4 h,[24],3.84 µM·h
same,solubility,[19],17 µg/mL
same,EC50,[6],35 nM
same,concentration at 4 h,[25],126 nM
same,concentration at 4 h,[26],14 nM
same,Papp,[16],48 ×10⁻⁶ cm/s
same,EC50,[17],> 50000 nM
